In patent US20240034729A9, “HETEROCYCLIC COMPOUND, INTERMEDIATE, PREPARATION METHOD THEREFOR AND APPLICATION THEREOF” (WUHAN LL SCIENCE AND TECHNOLOGY DEVELOPMENT CO., LTD., priority 2018, published 2024):

Assays:
[1] = target: hP2X3 (human purinergic P2X receptor subtype 3) (Homo sapiens (Human), UniProt P56373); experiment: FLIPR calcium assay, hP2X3 expressed in HEK293 cells; format: cell-based; settings: read-out: P2X3 IC50
[2] = target: hP2X2/3 (heterodimeric receptors formed by human purinergic P2X receptors subtype 2 and subtype 3) (Homo sapiens (Human), UniProt P56373+Q9UBL9); experiment: FLIPR calcium assay, hP2X2/3 expressed in HEK293 cells (P2X2/3 receptor selectivity); format: cell-based; settings: for IC50: HEK293 cells expressing hP2X2/3, agonist BZ-ATP 5 μM, unit inferred
[3] = In vitro cytotoxicity assay, CCK-8 method; format: cell-based; settings: human, HepG2 cells
Experimental: In vitro cytotoxicity assay for the compounds disclosed herein was performed in HepG2 cells using the CCK-8 method. HepG2 cells (Beina Bio) in the logarithmic growth phase were collected, the concentration of cell suspension was adjusted, and then the cells were plated on a 96-well cell culture plate at 50,000 cells/well. The cells were then incubated overnight in a cell incubator of 5% […] at 37° C., and after 80-90% cell confluence was achieved, test compounds or vehicle (DMSO) at various concentration gradients were added after medium change. The plate was incubated in a cell incubator of 5% […] at 37° C. for 48 h. After the treatment, the medium in the plate was discarded. The plate was washed twice with PBS, added with CCK-8 working solution (Beyotime) at 100 μL per well, and then incubated at 37° C. for 1.5 h away from light. Absorbance at OD450nm was measured for each well on a microplate reader, and CC50 value of each compound was analyzed and calculated.

[4] = In vitro metabolic stability, human liver microsome; format: in vitro ADME; settings: liver microsomes, 1 mg/mL liver microsome protein, 37° C., NA = essentially not metabolized, read-out: T1/2 in human liver microsome
Experimental: (§1) The in vitro metabolic stability of the compounds disclosed herein was determined through incubation of liver microsomes of various species. […] At each time point, 100 μL of the reaction mixture was added into a centrifuge tube containing 400 μL of internal standard working solution (containing a 200 ng/mL solution of dexamethasone, diclofenac, tolbutamide and labetalol in acetonitrile) precooled at 0° C. so as to terminate the reaction, and the mixture was then centrifuged at 10,000 g for 10 min at 4° C. The supernatant was collected for LC-MS assay so as to obtain the values of in vitro metabolic half-life of the test compounds in liver microsomes of various species.

[5] = In vitro metabolic stability, rat liver microsome; format: in vitro ADME; settings: liver microsomes, 1 mg/mL liver microsome protein, 37° C., NA = essentially not metabolized, read-out: T1/2 in rat liver microsome
Experimental: as §1

[6] = In vitro metabolic stability, guinea pig liver microsome; format: in vitro ADME; settings: liver microsomes, 1 mg/mL liver microsome protein, 37° C., NA = essentially not metabolized, read-out: T1/2 in guinea pig liver microsome
Experimental: The in vitro metabolic stability of the compounds disclosed herein was determined through incubation of liver microsomes of various species. A proper amount of test compound was added into a liver microsome reaction system (1 mg/mL liver microsome protein, 25 U/mL glucose-6 phosphate dehydrogenase, 1 mM NADP, 6 mM D-glucose 6-phosphate and 5 mM MgCl2), and then the mixture was incubated in a water bath kettle at 37° C. to start the reaction. At each time point, 100 μL of the reaction mixture was added into a centrifuge tube containing 400 μL of internal standard working solution (containing a 200 ng/mL solution of dexamethasone, diclofenac, tolbutamide and labetalol in acetonitrile) precooled at 0° C. so as to terminate the reaction, and the mixture was then centrifuged at 10,000 g for 10 min at 4° C. The supernatant was collected for LC-MS assay so as to obtain the values of in vitro metabolic half-life of the test compounds in liver microsomes of various species.

[7] = tested on: Male Dunkin Hartley guinea pigs; experiment: Citric acid only cough model; format: in vivo, guinea pig; set-up: Mean cough latency: unit not given beside the values; settings: for Mean number of coughs: 17.5% citric acid
Experimental: Male Dunkin Hartley guinea pigs (300-350 g) were placed in an animal atomization box, and then the door of the atomization box was closed while the ultrasonic atomizer (Guangdong Yuehua) was turned on. 17.5% citric acid gas was introduced into the atomization box at a maximum atomization rate (about 2 mL/min) for 20 s, and coughs of the animals within 10 min were continuously observed from the time of the start of atomization. During the 10-min observation, coughs of the animals were counted manually, and the number of coughs were judged according to cough postures of the guinea pigs, such as abdominal twitching, mouth opening, and head inclining downward abruptly. The number of coughs during the first 5 min and that during 10 min were recorded, and the cough latency of the guinea pigs, namely the time from the initiation of citric acid induction to the appearance of the first cough, was also recorded.

[8] = before administration (baseline of the group)

Chain of hP2X3 (human purinergic P2X receptor subtype 3) (P56373 whole entry): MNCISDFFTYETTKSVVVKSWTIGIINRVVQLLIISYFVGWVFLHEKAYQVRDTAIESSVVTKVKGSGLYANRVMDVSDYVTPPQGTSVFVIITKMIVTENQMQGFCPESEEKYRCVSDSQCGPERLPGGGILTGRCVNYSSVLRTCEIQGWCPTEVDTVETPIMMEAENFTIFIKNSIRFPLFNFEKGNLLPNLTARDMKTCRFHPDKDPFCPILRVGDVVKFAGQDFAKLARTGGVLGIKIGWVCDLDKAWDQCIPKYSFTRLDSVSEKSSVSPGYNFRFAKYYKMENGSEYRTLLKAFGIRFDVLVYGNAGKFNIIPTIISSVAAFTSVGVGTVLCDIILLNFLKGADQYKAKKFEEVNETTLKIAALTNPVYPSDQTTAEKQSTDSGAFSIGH
Chain of hP2X2/3 (heterodimeric receptors formed by human purinergic P2X receptors subtype 2 and subtype 3) (P56373 whole entry): as above
Chain of hP2X2/3 (heterodimeric receptors formed by human purinergic P2X receptors subtype 2 and subtype 3) (Q9UBL9 whole entry): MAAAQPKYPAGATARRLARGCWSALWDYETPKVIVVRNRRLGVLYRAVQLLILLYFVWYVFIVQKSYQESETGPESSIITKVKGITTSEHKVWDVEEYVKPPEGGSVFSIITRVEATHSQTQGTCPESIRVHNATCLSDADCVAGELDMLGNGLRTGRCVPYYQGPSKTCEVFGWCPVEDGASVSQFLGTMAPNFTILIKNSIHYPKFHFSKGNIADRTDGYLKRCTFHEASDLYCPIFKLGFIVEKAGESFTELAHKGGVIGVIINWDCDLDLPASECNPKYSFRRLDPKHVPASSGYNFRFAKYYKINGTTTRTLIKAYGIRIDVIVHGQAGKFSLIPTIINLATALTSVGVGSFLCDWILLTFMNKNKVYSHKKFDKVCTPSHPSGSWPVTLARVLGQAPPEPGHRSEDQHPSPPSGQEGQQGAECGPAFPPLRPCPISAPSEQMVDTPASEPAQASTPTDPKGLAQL

| SMILES | IC50 [1] [µM] | Folds of selectivity [2] | IC50 [2] [µM] | CC50 at 48 h [3] [µM] | half-life [4] [h] | half-life [5] [h] | half-life [6] [h] | Cough inhibition rate Vs Baseline (%) ([7]; 30 mg/kg) | Cough inhibition rate Vs Vehicle (%) ([7]; 30 mg/kg) | Mean cough latency ([7]; after administration, 30 mg/kg) | Mean number of coughs ([7]; after administration, 30 mg/kg) | Mean cough latency [7, 8] | Mean number of coughs [7, 8] |
| --- | --- | --- | --- | --- | --- | --- | --- | --- | --- | --- | --- | --- | --- |
| COC(=O)N1CCO[C@@H](Cc2c(-c3cnc(-n4cccn4)cc3C)nc3cc(C)ccn23)C1 [Compound 168, methyl (S)-2-((7-methyl-2-(4-methyl-6-(1H-pyrazol-1-yl)pyridin-3-yl)imidazo[1,2-a]pyridin-3-yl)methyl)morpholine-4-carboxylate] | 0.01 to 0.05 | A (key: A: folds of selectivity >1000; B: 200< folds of selectivity ≤1000; C: folds of selectivity ≤200) | > 60 | > 100 | 8.71 | 0.96 | 0.487 | – | – | – | – | – | – |
| COC(=O)N1CCO[C@@H](Cc2c(-c3c(F)cc(N4CC=CC4=O)cc3F)nc3cc(C)ccn23)C1 [Compound 169, methyl (S)-2-((2-(2,6-difluoro-4-(2-carbonyl-2,5-dihydro-1H-pyrrol-1-yl)phenyl)-7-methylimidazo[1,2-a]pyridin-3-yl)methyl)morpholine-4-carboxylate] | – | A (key: A: folds of selectivity >1000; B: 200< folds of selectivity ≤1000; C: folds of selectivity ≤200) | > 60 | > 100 | 13.8 | 0.591 | 2.74 | – | – | – | – | – | – |
| COC(=O)N1CCO[C@@H](Cc2c(-c3ccc(S(N)(=O)=O)cc3C)nc3cc(C)ccn23)C1 [Compound 184, methyl (S)-2-((7-methyl-2-(2-methyl-4-sulfamoylphenyl)imidazo[1,2-a]pyridin-3-yl)methyl)morpholine-4-carboxylate] | 0.0056 | – | – | > 200 | 406 | 0.0943 | 2.89 | – | – | – | – | – | – |
| CNC(=O)c1cc(F)c(-c2nc3cc(C)ccn3c2C[C@H]2CN(C(=O)OC)CCO2)c(F)c1 [Positive compound 1, methyl (S)-2-((2-(2,6-difluoro-4-(4-methylcarbamoyl)phenyl)-7-methylimidazo[1,2-a]pyridin-3-yl)methyl)morpholine-4-carboxylate, reference compound] | – | >5217 | – | 128 | 24.2 | 0.89 | 1.87 | 47.0 | 42.6 | 226.75 | 9.88 | 80.13 | 18.63 |
| COC(=O)Nc1cc(F)c(-c2nc3cc(C)ccn3c2C[C@H]2CN(C(=O)OC)CCO2)c(F)c1 [Compound 3, methyl (S)-2-((2-(2,6-difluoro-4-(methoxycarbonylamino)phenyl)-7-methylimidazo[1,2-a]pyridin-3-yl)-methyl)morpholine-4-carboxylate] | 0.01 to 0.05 | A (key: A: folds of selectivity >1000; B: 200< folds of selectivity ≤1000; C: folds of selectivity ≤200) | > 60 | 59.3 | 4.34 | 0.479 | 0.842 | – | – | – | – | – | – |
| COC(=O)N1CCO[C@@H](Cc2c(-c3cc(F)c(S(N)(=O)=O)cc3Cl)nc3cc(Cl)ccn23)C1 [Compound 181, methyl (S)-2-((7-chloro-2-(2-chloro-5-fluoro-4-sulfamoylphenyl)imidazo[1,2-a]pyridin-3-yl)methyl)morpholine-4-carboxylate] | 0.0018 | – | – | 138 | 23.3 | 3.13 | 3.91 | – | – | – | – | – | – |
| COC(=O)N1CCO[C@@H](Cc2c(-c3c(F)cc(-c4cc[nH]n4)cc3F)nc3cc(C)ccn23)C1 [Compound 15, methyl (S)-2-((2-(2,6-difluoro-4-(1H-pyrazol-3-yl)phenyl)-7-methylimidazo[1,2-a]pyridin-3-yl)methyl)morpholine-4-carboxylate] | < 0.01 | B (key: A: folds of selectivity >1000; B: 200< folds of selectivity ≤1000; C: folds of selectivity ≤200) | 21.6 | 52.6 | 3.18 | 0.423 | 0.275 | – | – | – | – | – | – |
| COC(=O)N1CCO[C@@H](Cc2c(-c3ccc(S(N)(=O)=O)cc3Cl)nc3cc(C)ccn23)C1 [Compound 176, methyl (S)-2-((2-(2-chloro-4-sulfamoylphenyl)-7-methylimidazo[1,2-a]pyridin-3-yl)methyl)morpholine-4-carboxylate] | 0.0075 | – | – | > 200 | 3.93 | 0.0602 | 1.02 | – | – | – | – | – | – |
| COC(=O)N1CCO[C@@H](Cc2c(-c3c(F)cc(-c4ccc[nH]4)cc3F)nc3cc(C)ccn23)C1 [Compound 4, methyl (S)-2-((2-(2,6-difluoro-4-(1H-pyrrol-2-yl)phenyl)-7-methylimidazo[1,2-a]pyridin-3-yl)methyl)morpholine-4-carboxylate] | < 0.01 | A (key: A: folds of selectivity >1000; B: 200< folds of selectivity ≤1000; C: folds of selectivity ≤200) | 14.3 | 13.2 | 1.02 | 0.0818 | 0.073 | – | – | – | – | – | – |
| COC(=O)N1CCO[C@@H](Cc2c(-c3c(F)cc(-c4ccccn4)cc3F)nc3cc(C)ccn23)C1 [Compound 17, methyl (S)-2-((2-(2,6-difluoro-4-(pyridin-2-yl)phenyl)-7-methylimidazo[1,2-a]pyridin-3-yl)methyl)morpholine-4-carboxylate] | 0.01 to 0.05 | B (key: A: folds of selectivity >1000; B: 200< folds of selectivity ≤1000; C: folds of selectivity ≤200) | 29.8 | 51 | 16.6 | 0.323 | 0.143 | – | – | – | – | – | – |
| COC(=O)N1CCO[C@@H](Cc2c(-c3c(F)cc(S(N)(=O)=O)cc3F)nc3cc(C)c(F)cn23)C1 [Compound 182, methyl (S)-2-((2-(2,6-difluoro-4-sulfamoylphenyl)-6-fluoro-7-methylimidazo[1,2-a]pyridin-3-yl)methyl)morpholine-4-carboxylate] | 0.0035 | – | – | > 200 | 3.62 | 0.182 | 1.02 | – | – | – | – | – | – |
| COC(=O)N1CCO[C@@H](Cc2c(-c3c(F)cc(S(N)(=O)=O)cc3F)nc3cc(C)ccn23)C1 [Compound 171, methyl (S)-2-((2-(2,6-difluoro-4-sulfamoylphenyl)-7-methylimidazo[1,2-a]pyridin-3-yl)methyl)morpholine-4-carboxylate] | 0.0021 | 45975 | 36.8 | 200 | 8.72 | 0.141 | 2.33 | – | – | – | – | – | – |
